Columns and labels:
Test in all cases: relative viability (nuclei count vs DMSO), 5 days (fraction); higher = more cells survive
[1] = compound: C(C(=O)C(=O)O)Br [Bromopyruvate] + Cc1cc(Nc2cc(N3CCN(C)CC3)nc(Sc3ccc(NC(=O)C4CC4)cc3)n2)n[nH]1 [Tozasertib] (partner 0.1 µM)
Outline: (§1)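 Lung cancer cell lines in 1536-well plates were dosed by pin tool the day after seeding, either with one drug alone or with a fixed anchor-drug dose plus five library-drug doses (not always all listed) in √10 steps. After 5 days, cells were fixed and their nuclei stained in one step (final 0.05% Triton X-100, 1% formaldehyde, 1 ug/ml Hoechst), then counted on 4× images. Relative viability is the nuclei count in treated wells divided by that in vehicle wells. Values are medians of duplicate plates.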

[2] = compound: C(C(=O)C(=O)O)Br [Bromopyruvate] + CC(C)C[C@H](NC(=O)[C@H](Cc1ccccc1)NC(=O)c1cnccn1)B(O)O [Bortezomib] (partner 0.002 µM)
Outline: as §1

[3] = compound: C(C(=O)C(=O)O)Br [Bromopyruvate] + CS(=O)(=O)CCNCc1ccc(-c2ccc3ncnc(Nc4ccc(OCc5cccc(F)c5)c(Cl)c4)c3c2)o1 [Lapatinib] (partner 2 µM)
Outline: as §1

Bromopyruvate + Olaparib = compound: C(C(=O)C(=O)O)Br [Bromopyruvate] + O=C(c1cc(Cc2n[nH]c(=O)c3ccccc23)ccc1F)N1CCN(C(=O)C2CC2)CC1 [Olaparib] (partner 8 µM)
Outline: as §1

Cell Line | relative viability ([1]; first compound 1 µM) | relative viability ([1]; first compound 3.162 µM) | relative viability ([1]; first compound 10 µM) | relative viability ([1]; first compound 31.62 µM) | relative viability ([1]; first compound 100 µM) | relative viability ([2]; first compound 1 µM) | relative viability ([2]; first compound 3.162 µM) | relative viability ([2]; first compound 10 µM) | relative viability ([2]; first compound 31.62 µM) | relative viability ([2]; first compound 100 µM) | relative viability ([3]; first compound 1 µM) | relative viability ([3]; first compound 3.162 µM) | relative viability ([3]; first compound 10 µM) | relative viability ([3]; first compound 31.62 µM) | relative viability ([3]; first compound 100 µM) | relative viability (Bromopyruvate + Olaparib; first compound 1 µM) | relative viability (Bromopyruvate + Olaparib; first compound 3.162 µM) | relative viability (Bromopyruvate + Olaparib; first compound 10 µM) | relative viability (Bromopyruvate + Olaparib; first compound 31.62 µM) | relative viability (Bromopyruvate + Olaparib; first compound 100 µM)
NCI-H1651 | 0.634 | 0.718 | 0.665 | 0.701 | 0.652 | 0.922 | 0.952 | 1.04 | 0.822 | 0.867 | 0.858 | 0.909 | 0.905 | 0.764 | 0.829 | 0.188 | 0.182 | 0.187 | 0.207 | 0.167
NCI-H460 | 0.432 | 0.485 | 0.426 | 0.424 | 0.335 | 1.06 | 1.14 | 1.34 | 0.978 | 1.07 | 0.967 | 0.881 | 1.8 | 1.01 | 0.967 | 0.457 | 0.404 | 0.469 | 0.397 | 0.462
LCLC-97TM1 | 0.195 | 0.206 | 0.212 | 0.182 | 0.128 | 0.957 | 0.625 | 0.735 | 0.573 | 0.586 |  |  | 0.864 | 1.28 | 0.82 | 0.467 | 0.458 | 0.481 | 0.352 | 0.212
NCI-H838 | 0.268 | 0.291 | 0.305 | 0.242 | 0.293 | 0.915 | 0.886 | 0.773 | 0.786 | 0.763 | 1.05 | 0.962 | 1.01 | 1.01 | 0.936 | 0.758 | 0.757 | 0.86 | 0.781 | 0.686
NCI-H1355 | 0.529 | 0.577 | 0.516 | 0.548 | 0.574 | 1.35 | 1.16 | 1.25 | 1.34 | 1.16 | 0.978 | 0.986 | 1.06 | 0.995 | 0.965 | 0.738 | 0.762 | 0.681 | 0.764 | 0.776
HOP-62 | 0.39 | 0.386 | 0.381 | 0.339 | 0.351 | 0.739 | 0.832 |  | 0.547 | 0.628 | 1.04 | 1.02 |  | 1.02 | 1.02 | 0.373 | 0.432 | 0.798 | 0.525 | 0.157
NCI-H2087 | 0.237 | 0.284 | 0.234 | 0.269 | 0.258 | 0.878 | 0.772 | 0.772 | 0.793 | 0.9 | 1.06 | 1.02 | 1.09 | 0.91 | 1.05 | 0.6 | 0.574 | 0.391 | 0.573 | 0.451

Source: the supplement of paper PMC10307832
